Tests used:
[1] = DNP polarization build-up and dissolution of ethylacetoacetate with the radical as polarizing agent; conditions: 18 mM radical in 15-Crown-5 / 1,3-13C2 ethylacetoacetate; DNP at 1.2 K, 3.35 T, microwave irradiation
Description: Radical 1 (1.50 mg, 1.4 μmol) was dissolved in 15-Crown-5 (60.5 μl, 67.2 mg) to make a 24 mM solution. To 30 μl (33.7 mg) of this solution was added 1,3-^13C2 ethylacetoacetate (10.5 mg, 79 μmol, 158 μmol ^13C). The radical 1 concentration in the mixture was 18 mM.
43 mg of the composition prepared above were transferred from the Eppendorf tube to a sample cup and the sample cup was inserted into a DNP polarizer. The composition was polarised under DNP conditions at 1.2 K in a 3.35 T magnetic field under irradiation with microwave (93.900 GHz). The calculated solid-state polarization was 17% and the polarization build-up constant was 900 s.
The sample was dissolved in 6 ml 40 mM phosphate buffer pH 7.3+100 mg/l EDTA. A time series of 1D 13C-NMR spectra were recorded with a total delay between the pulses of 3 s. The liquid state polarization was 14% after 12 s transfer time. The pH was 7.3 in the dissolved sample. […]
43 mg of the composition prepared above were transferred from the Eppendorf tube to a sample cup and the sample cup was inserted into a DNP polarizer. […] The calculated solid-state polarization was 18% and the polarization build-up constant was 1700 s.
The sample was dissolved in 6 ml 40 mM phosphate buffer pH 7.3+100 mg/l EDTA. A time series of 1D 13C-NMR spectra were recorded with a total delay between the pulses of 3 s. […]

[2] = Precipitation of the radical on aqueous dissolution and removal by mechanical filtration (UV-Vis check of filtrate); type: physicochemical
Description: The sample was dissolved in 6 ml 40 mM phosphate buffer pH 7.3+100 mg/l EDTA. A time series of 1D 13C-NMR spectra were recorded with a total delay between the pulses of 3 s. The liquid state polarization was 14% after 12 s transfer time. The pH was 7.3 in the dissolved sample.
The sample was dissolved in 6 ml 40 mM phosphate buffer pH 7.3+100 mg/l EDTA. A time series of 1D 13C-NMR spectra were recorded with a total delay between the pulses of 3 s. The liquid state polarization was 15% after 12 s transfer time. The pH was 7.3 in the dissolved sample. The sample was filtered through a syringe filter (Acrodisk 25 mm PVDF filter, 0.45 μm pore size). Filtration of the full volume was completed in <3 s. […] Since the high extinction coefficients of the trityl radicals allow reliable determination of concentration down to approximately 1-1.5 μM, the concentration in the filtrate was below these values. The radical was removed to >99%.

tris{8-carboxyl-2,2,6,6-tetramethyl-benzo(1,2-d:4,5-dS)bis(1,3)dithiole-4-yl}methyl sodium salt [Radical 1, reference compound]
polarization build-up constant [1]: 900 s
removal of the radical by mechanical filtration ([2]; after water dissolution): cannot be removed by mechanical filtration
precipitation of the radical in water dissolution ([2]; dissolved in 6 ml 40 mM phosphate buffer pH 7.3 + 100 mg/l EDTA): does not precipitate

From patent US9381257B2, “Triarylmethyl radicals” (BRACCO IMAGING S.P.A., priority 2012, dated 2016)
